Patent US20130131034A1, “DERIVATIVES OF AMINOINDANES, THEIR PREPARATION AND THEIR APPLICATION IN THERAPEUTICS” (SANOFI, priority 2010, published 2013)
Counter-ions that a name gives are not always drawn.

| melting point | Compound |
| --- | --- |
| 162 °C | CS(=O)(=O)c1ccc2c(c1)[C@@H](Oc1ccc(C#N)cc1Cl)[C@H](N1CCC[C@@H](N)C1)C2 (as salt: HCl) [Compound 123, 4-{[(1R,2R)-2-[(3R)-3-aminopiperidin-1-yl]-6-(methylsulfonyl)-2,3-dihydro-1H-inden-1-yl]oxy}-3-chlorobenzonitrile] |
| 93 °C | CC(C)(N)C1CN([C@@H]2Cc3ccccc3[C@H]2Oc2ccc(C#N)cc2Cl)C1 (as salt: HCl) [Compound 125, 4-({(1R,2R)-2-[3-(2-aminopropan-2-yl)azetidin-1-yl]-2,3-dihydro-1H-inden-1-yl}oxy)-3-chlorobenzonitrile] |
| 145.6 °C | COc1ccc2c(c1)[C@@H](Oc1ccc3c(c1)CCC(=O)N3)[C@H](N1CCC[C@@H](N)C1)C2 (as salt: HCl) [Compound 131, 6-({(1R,2R)-2-[(3R)-3-aminopiperidin-1-yl]-6-methoxy-2,3-dihydro-1H-inden-1-yl}oxy)-3,4-dihydroquinolin-2(1H)-one] |
| 183.7 °C | N[C@@H]1CCCN([C@@H]2Cc3ccccc3[C@H]2Oc2cc3c(cc2Cl)NC(=O)CC3)C1 (as salt: HCl) [Compound 132, 6-({(1R,2R)-2-[(3R)-3-aminopiperidin-1-yl]-2,3-dihydro-1H-inden-1-yl}oxy)-7-chloro-3,4-dihydroquinolin-2(1H)-one] |
| 172 °C | N#Cc1ccc(O[C@@H]2c3cccnc3C[C@H]2N2CCC[C@@H](N)C2)c(Cl)c1 (as salt: HCl) [Compound 137, 4-({(5R,6R)-6-[(3R)-3-aminopiperidin-1-yl]-6,7-dihydro-5H-cyclopenta[b]pyridin-5-yl}oxy)-3-chlorobenzonitrile] |
| 180 °C | N#Cc1ccc(O[C@@H]2c3ncccc3C[C@H]2N2CCC[C@@H](N)C2)c(Cl)c1 (as salt: HCl) [Compound 138, 4-({(6R,7S)-6-[(3R)-3-aminopiperidin-1-yl]-6,7-dihydro-5H-cyclopenta[b]pyridin-7-yl}oxy)-3-chlorobenzonitrile] |
